Experimental data reported in patent US20250064874A1, “Mushroom Spore, Cannabinoid, and Specified Compositions” (priority 2023, published 2025).

How the values were obtained:
[1] = isolated or synthetic CBD; cited from earlier work
[2] = test system: neuronal cultures exposed to glutamate; conditions: in vitro, isolated or synthetic CBD; cited from earlier work
[3] = test system: shin splits, sciatica tight muscles, aching back pains, and circulation issues; assay: Example 12 case report: soaking body in magnesium sulfate with or without Reishi spore powder; type: in vivo, human; conditions: body soaked 30 minutes in 20 gallons of hot water, 1 cup Magnesium sulfate
Method: The person tried soaking body in 1 cup of Magnesium sulfate with 20 gallons of hot water for 30 minutes. […] After 72 hours, the person soaked their body in 20 gallons of hot water comprising 1 cup of Magnesium sulfate in combination with 1000 mg of Reishi Mushroom Spore Powder, for 30 minutes.

For C=C(C)[C@@H]1CCC(C)=C[C@H]1c1c(O)cc(CCCCC)cc1O [CBD, cannabidiol], the “difference between treated animals and placebo” value [1] is listed as “failed to find a difference” and the “prevention of toxicity of glutamate” value [2] is listed as “could be prevented to some extent”.

For O=S(=O)([O-])[O-].[Mg+2] [Magnesium sulfate], the “improvement noticed (pain relief, sleep, mood, circulation, dexterity)” value [3] was “slight improvement”.
